Reference: patent publication US12221494B2, “Short synthetic peptides and their uses for treating retinal degenerative diseases and/or tissue injuries” (MacKay Memorial Hospital, priority 2019, dated 2025)
Square brackets hold non-standard residues; d marks the D form. Ends that are not written are not given here.

Tested on: ARPE-19 cells
Assay: 4-HNE induced apoptosis of ARPE-19 cells (TUNEL staining)
Format: cell-based, human
Conditions: 20 μM peptide pretreatment, 25 μM 4-HNE 24 h
Description: FIG. 6. The protective effect of the 6-mer dS on ARPE-19 cells against 4-HNE induced apoptosis. Cells were deprived of serum for 24 h and then pretreated with 20 μM 6-mer dS or solvent prior to exposed with 25 μM 4-HNE for additional 24 h. Apoptosis was determined by TUNEL staining (green dots) and counter-stained with Hoechst 33258 (blue dots). (A) Representative graphs from three independent experiments are shown. (B) The percentage of cell death was quantified by dividing the number of TUNEL-positive cells to a population of 2000 counted cells per condition. TUNEL, terminal deoxynucleotidyl transferase-mediated dUTP nick end-labeling. ^aP<0.00003 versus solvent-treated cells. ^bP<0.0006 versus solvent/4-HNE-treated cells.
Reference is made to FIG. 6, which depicts the protective effect of 6-mer dS or 6-mer dE on 4-hydroxy-2-nonenal (4-HNE) induced apoptosis of ARPE-19 cells. 4-hydroxy-2-nonenal (4-HNE) is a product of lipid oxidation, and is also considered as one of the most formidable reactive aldehydes capable of forming adduct with various cellular targets, particularly proteins involve in redox signaling.

NH2-Ser-Leu-Gly-Ala-Glu-Gln-COOH ([dS]LGAEQ; not fully specified (N-terminus, C-terminus); printed as NH2-Ser-Leu-Gly-Ala-Glu-Gln-COOH) [Peptide 6-mer]
4-HNE induced apoptosis (TUNEL), in words: 6-mer dS being more effective than the 6-mer
